How the values were obtained:
zebrafish larvae [1] = experiment: Toxicity evaluation, maximum tolerated concentration (MTC) in zebrafish larvae; format: in vivo, zebrafish (Danio rerio); details: highest concentration without death, toxicity or locomotor impairment
Protocol: Maximum tolerated concentration (MTC) was determined prior to further experiments and used as the highest test concentration. Experiments were described as described in Copmans et al. (2018) ACS chemical neuroscience. MTC was investigated by exposing 12 larvae of 6 dpf to a range of concentrations in a 100 μl volume during 18 hours. The following parameters were investigated after 2 and 18 hours of exposure: touch response, morphology, posture, edema, signs of necrosis, swim bladder, and heartbeat.

NMRI mice = experiment: Mouse 6-Hz (44 mA) psychomotor seizure model; format: in vivo; details: 30 min before stimulation; for mean seizure duration (±SD): Example 8; for mean seizure duration: Example 7
Protocol: Experiments were performed as described in Copmans et al. (2018) ACS chemical neuroscience. […] Mice were manually restrained and a drop of ocular anesthetic (0.5% lidocaine) was applied to the corneas before stimulation. Following electrical current stimulation, the mouse was released in a transparent cage for behavioral observation, which was video-recorded. […] In addition, facial and mouth jerking as well as head nodding were observed occasionally. Seizure durations were measured during the experiment by experienced researchers, familiar with the different seizure behaviors. In addition, seizure durations were determined by blinded video analysis to confirm or correct the initial observations. Data are expressed as mean±SD.

zebrafish larvae [2] = experiment: Non-invasive local field potential (LFP) recordings from the optic tectum, zebrafish PTZ seizure model; format: in vivo, zebrafish (Danio rerio); details: MTC (20 μg/mL); 2 hours incubation; 10 min recording
Protocol: Non-invasive LFP recordings were measured from the midbrain (optic tectum) of 7 dpf zebrafish larvae pre-incubated with VHC only, PTZ only, compound and VHC, or compound and PTZ. Experiments were performed as described in Copmans et al. (2018) Neurochem. Int. 112, 124-133;
Copmans (2018) ACS chemical neuroscience. In brief, larvae were incubated for approximately 2 hours with VHC (1% DMSO) or test compound (1% DMSO) in a 100 μL volume. After incubation, an equal volume of VHC (embryo medium) or 40 mM PTZ (20 mM working concentration) was added to the well for 15 minutes prior to recording. These steps occurred at 28° C., while further manipulation and electrophysiological recordings occurred at room temperature (±21° C.). The larva was embedded in 2% low melting point agarose (Invitrogen) and the signal electrode (an electrode inside a soda-glass pipet (1412227, Hilgenberg) pulled with a DMZ Universal Puller (Zeitz, Germany), diameter±20 microns, containing artificial cerebrospinal fluid (ACSF: 124 mM NaCl, 10 mM glucose, 2 mM KCl, 2 mM MgSO4, 2 mM CaCl2, 1.25 mM KH2PO4, and 26 mM NaHCO3, 300-310 mOsmols)) was positioned on the skin covering the optic tectum. A differential extracellular amplifier (DAGAN, USA) amplified the voltage difference between the signal (measured by the signal electrode) and the reference electrode. The differential signal was band pass filtered at 0.3-300 Hz and digitized at 2 kHz via a PCI-6251 interface (National instruments, UK) using WinEDR (John Dempster, University of Strathclyde, UK). A grounding electrode grounded the electrical system. All electrodes were connected with ACSF. Each recording lasted 600 seconds. Manual analysis was completed by quantification of the number, cumulative duration, and mean duration of epileptiform-like events with Clampfit 10.2 software (Molecular Devices Corporation, USA). An electrical discharge was considered epileptiform if it was a poly-spiking event comprising at least 3 spikes with a minimum amplitude of three times the baseline amplitude and a duration of at least 100 milliseconds. Data are expressed as mean±SD.

zebrafish larvae [3] = experiment: Zebrafish pentylenetetrazole (PTZ) seizure model, behavioral analysis; format: in vivo, zebrafish (Danio rerio); details: 2 hours incubation; for antiseizure activity at lower concentrations: MTC/2 and MTC/4
Protocol: Experiments were performed as [Add references please: Copmans (2018), ACS chemical neuroscience; Copmans et al. (2018) Neurochem. Int. 112, 124-133; Afrikanova et al. (2013) PLoS One 8, e54166; Orellana-Paucar et al. (2012) Epilepsy Behav 24, 14-22]. In brief, a single 7 dpf larva was placed in each well of a 96-well plate and treated with either VHC (1% DMSO) or test compound in a 100 μl volume. Larvae were incubated in dark for 2 hours at 28° C., whereafter 100 μl of either VHC (embryo medium) or 40 mM PTZ (20 mM working concentration) was added to each well. Next, within 5 minutes the 96-well plate was placed in an automated tracking device (ZebraBox Viewpoint, France) and larval behavior was video recorded for 30 minutes. The complete procedure was performed in dark conditions using infrared light. Total locomotor activity was recorded by ZebraLab software (Viewpoint, France) and expressed in actinteg units, which is the sum of pixel changes detected during the defined time interval (5 minutes). Larval behavior was depicted as mean actinteg units per 5 minutes in the 30 minute recording period and over consecutive time intervals. Data are expressed as mean±SD for single experiments with regards to screening, and as mean±SEM for single experiments and for independent experiments of which the means or data are pooled.
In the first secondary screen three replicate wells were used per sample (100 μg/mL) tested and each experimental plate contained 12 internal control wells. In the second secondary screen six replicate wells were used per sample and concentration tested (100, 33, and 11 μg/mL), again 12 internal control wells were used per experimental plate.

[4] = Solubility in the injection solvent (PEG200:DMSO 1:1); format: physicochemical; details: 20 mg/kg dose
Protocol: For experiments with zebrafish larvae, dry samples and compounds were dissolved in 100% dimethyl sulfoxide (DMSO, spectroscopy grade) as 100-fold concentrated stocks and diluted in embryo medium to a final concentration of 1% DMSO content, except for PTZ which was dissolved in embryo medium (0% DMSO). Control groups were treated with 1% DMSO (VHC) in accordance with the final solvent concentration of tested samples or compounds. For mice experiments, a mixture of poly-ethylene glycol M.W. 200 (PEG200) and 100% DMSO (spectroscopy grade) (1:1 PEG200:DMSO) was used as solvent and VHC. Pentylenetetrazole and valproate were purchased from Sigma-Aldrich.

SMILES	maximum tolerated concentration (MTC) (zebrafish larvae [1]) [µg/mL]	mean seizure duration (±SD) (NMRI mice; 2.5 mg/kg i.p.) [s]	mean seizure duration (±SD) (NMRI mice; 5 mg/kg i.p.) [s]	mean seizure duration (±SD) (NMRI mice; 10 mg/kg i.p.) [s]	cumulative duration of PTZ-induced epileptiform events (zebrafish larvae [2])	number of PTZ-induced epileptiform events (zebrafish larvae [2])	antiseizure activity at lower concentrations (zebrafish larvae [3])	PTZ-induced seizure behavior in 5 min time intervals (zebrafish larvae [3]; at MTC)	PTZ-induced seizure behavior in the 30 min recording period (zebrafish larvae [3]; at MTC)	solubility in the solvent [4]	PTZ-induced seizure behavior in 5 min time intervals (zebrafish larvae [3]; at the tested concentration)	also measured
Cc1cc2ccc3c(c2cn1)OC(C(C)C)C3=O (stereo not shown) [TMC-120A]	20	13	20	17	significantly lowered	significantly lowered	No significant antiseizure activity	significant reduction	not TMC-120A, significantly lowered	poor solubility		mean seizure duration (±SD) (NMRI mice; 1.25 mg/kg i.p.): 15 s; percentage of larvae with PTZ-induced epileptiform activity (zebrafish larvae [2]): significantly lowered the percentage of larvae with PTZ-induced epileptiform activity by more than half
CC1=Cc2ccc3c(c2CO1)O[C@@H](C(C)C)C3=O [penicisochroman G]											significant reduction	
Cc1cc2ccc3c(c2cn1)OC(O)(C(C)C)C3=O (stereo not shown) [TMC-120C]											significant reduction	PTZ-induced seizure behavior in the 30 min recording period (zebrafish larvae [3]; at the tested concentration): lowered PTZ-induced seizure behavior
CC(C)=C1Oc2c(ccc3cc(C)ncc23)C1=O [TMC-120B]	20	27	23.5	10	significantly lowered	significantly lowered	No significant antiseizure activity	significant reduction	significantly lowered	poor solubility		mean seizure duration (NMRI mice; 2.5 mg/kg i.p.): 27 s; mean seizure duration (NMRI mice; 5 mg/kg i.p.): 23.5 s; mean seizure duration (NMRI mice; 10 mg/kg i.p.): 10 s; mean seizure duration (NMRI mice; 20 mg/kg i.p.): 27.5 s; mean seizure duration (±SD) (NMRI mice; 20 mg/kg i.p.): 27.5 s
CC1=Cc2ccc3c(c2CO1)OC(=C(C)C)C3=O [ustusorane B]											significant reduction	
